Reference: the supplement of paper PMC10307832

Experiments:
Test in all cases: relative viability (nuclei count vs DMSO), 5 days (fraction); higher = more cells survive
[1] = system: ABC-1
In short: (§1)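 Relative viability divides the nuclei count in treated wells by that in vehicle wells. Lung cancer cell lines were seeded in 1536-well plates, dosed by pin tool the next day, and fixed and stained after 5 days in one step with final 0.05% Triton X-100, 1% formaldehyde and 1 ug/ml Hoechst. Dosing was a single drug or a fixed anchor-drug dose plus five library-drug doses (not always all listed) in √10 steps, and values are medians of duplicate plates imaged at 4×.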

[2] = system: HCC-44
In short: as §1

[3] = system: LOU-NH91
In short: as §1

[4] = system: NCI-H647
In short: as §1

[5] = system: NCI-H1734
In short: as §1

[6] = system: COR-L23
In short: as §1

[7] = system: SW 900
In short: as §1

[8] = system: NCI-H1650
In short: as §1

[9] = system: EPLC-272H
In short: as §1

[10] = system: RERF-LC-KJ
In short: as §1

[11] = system: NCI-H1993
In short: as §1

[12] = system: NCI-H1793
In short: as §1

[13] = system: NCI-H1563
In short: as §1

[14] = system: NCI-H441
In short: as §1

[15] = system: NCI-H3122
In short: as §1

[16] = system: NCI-H520
In short: as §1

[17] = system: PC-14
In short: as §1

[18] = system: NCI-H2023
In short: as §1

[19] = system: NCI-H2085
In short: as §1

[20] = system: NCI-H2347
In short: as §1

[21] = system: EKVX
In short: as §1

[22] = system: 201T
In short: as §1

[23] = system: NCI-H2405
In short: as §1

[24] = system: NCI-H2170
In short: as §1

## COc1cc(N2CCC(C(N)=O)CC2)ccc1Nc1nc(N)c(Cl)c(Nc2ccccc2S(=O)(=O)C(C)C)n1 [HG-5-88-01] + CCNC(=O)c1noc(-c2cc(C(C)C)c(O)cc2O)c1-c1ccc(CN2CCOCC2)cc1 [Luminespib] (partner 0.01 µM)
[1]; first compound 0.04 µM
  relative viability: 0.406
[1]; first compound 0.1265 µM
  relative viability: 0.86
[1]; first compound 0.4 µM
  relative viability: 0.345
[1]; first compound 1.265 µM
  relative viability: 0.296
[1]; first compound 4 µM
  relative viability: 0.587
[2]; first compound 0.04 µM
  relative viability: 1.01
[2]; first compound 0.1265 µM
  relative viability: 0.988
[2]; first compound 0.4 µM
  relative viability: 0.915
[2]; first compound 1.265 µM
  relative viability: 0.366
[2]; first compound 4 µM
  relative viability: 0.783
[3]; first compound 0.04 µM
  relative viability: 0.337
[3]; first compound 0.1265 µM
  relative viability: 0.338
[3]; first compound 0.4 µM
  relative viability: 0.331
[3]; first compound 1.265 µM
  relative viability: 0.35
[3]; first compound 4 µM
  relative viability: 0.356
[4]; first compound 0.04 µM
  relative viability: 0.25
[4]; first compound 0.1265 µM
  relative viability: 0.363
[4]; first compound 0.4 µM
  relative viability: 0.13
[4]; first compound 1.265 µM
  relative viability: 0.148
[4]; first compound 4 µM
  relative viability: 0.248
[5]; first compound 0.04 µM
  relative viability: 0.214
[5]; first compound 0.1265 µM
  relative viability: 0.166
[5]; first compound 0.4 µM
  relative viability: 0.171
[5]; first compound 1.265 µM
  relative viability: 0.19
[5]; first compound 4 µM
  relative viability: 0.171
[6]; first compound 0.04 µM
  relative viability: 0.69
[6]; first compound 0.1265 µM
  relative viability: 0.575
[6]; first compound 0.4 µM
  relative viability: 0.589
[6]; first compound 1.265 µM
  relative viability: 0.614
[6]; first compound 4 µM
  relative viability: 0.557
[7]; first compound 0.04 µM
  relative viability: 0.158
[7]; first compound 0.1265 µM
  relative viability: 0.207
[7]; first compound 0.4 µM
  relative viability: 0.185
[7]; first compound 1.265 µM
  relative viability: 0.157
[7]; first compound 4 µM
  relative viability: 0.186
[8]; first compound 0.04 µM
  relative viability: 0.156
[8]; first compound 0.1265 µM
  relative viability: 0.184
[8]; first compound 0.4 µM
  relative viability: 0.172
[8]; first compound 1.265 µM
  relative viability: 0.197
[8]; first compound 4 µM
  relative viability: 0.204
[9]; first compound 0.04 µM
  relative viability: 0.384
[9]; first compound 0.1265 µM
  relative viability: 0.269
[9]; first compound 0.4 µM
  relative viability: 0.347
[9]; first compound 1.265 µM
  relative viability: 0.181
[9]; first compound 4 µM
  relative viability: 0.204
[10]; first compound 0.04 µM
  relative viability: 1.4
[10]; first compound 0.1265 µM
  relative viability: 1.33
[10]; first compound 0.4 µM
  relative viability: 1.25
[10]; first compound 1.265 µM
  relative viability: 1.23
[10]; first compound 4 µM
  relative viability: 0.963
[11]; first compound 0.04 µM
  relative viability: 0.957
[11]; first compound 0.1265 µM
  relative viability: 0.826
[11]; first compound 0.4 µM
  relative viability: 0.83
[11]; first compound 1.265 µM
  relative viability: 0.648
[11]; first compound 4 µM
  relative viability: 0.578
[12]; first compound 0.1265 µM
  relative viability: 0.168
[12]; first compound 0.4 µM
  relative viability: 0.198
[12]; first compound 4 µM
  relative viability: 0.272
[13]; first compound 0.04 µM
  relative viability: 0.542
[13]; first compound 0.1265 µM
  relative viability: 0.539
[13]; first compound 0.4 µM
  relative viability: 0.476
[13]; first compound 1.265 µM
  relative viability: 0.485
[13]; first compound 4 µM
  relative viability: 0.519
[14]; first compound 0.04 µM
  relative viability: 0.284
[14]; first compound 0.1265 µM
  relative viability: 0.292
[14]; first compound 0.4 µM
  relative viability: 0.476
[14]; first compound 1.265 µM
  relative viability: 0.248
[14]; first compound 4 µM
  relative viability: 0.297
[15]; first compound 0.04 µM
  relative viability: 0.0748
[15]; first compound 0.1265 µM
  relative viability: 0.11
[15]; first compound 0.4 µM
  relative viability: 0.106
[15]; first compound 1.265 µM
  relative viability: 0.115
[15]; first compound 4 µM
  relative viability: 0.0981
[16]; first compound 0.04 µM
  relative viability: 0.186
[16]; first compound 0.1265 µM
  relative viability: 0.225
[16]; first compound 0.4 µM
  relative viability: 0.197
[16]; first compound 1.265 µM
  relative viability: 0.202
[16]; first compound 4 µM
  relative viability: 0.247
[17]; first compound 0.04 µM
  relative viability: 0.173
[17]; first compound 0.1265 µM
  relative viability: 0.209
[17]; first compound 0.4 µM
  relative viability: 0.181
[17]; first compound 1.265 µM
  relative viability: 0.131
[17]; first compound 4 µM
  relative viability: 0.194
[18]; first compound 0.04 µM
  relative viability: 0.397
[18]; first compound 0.1265 µM
  relative viability: 0.673
[18]; first compound 0.4 µM
  relative viability: 0.671
[18]; first compound 1.265 µM
  relative viability: 0.438
[18]; first compound 4 µM
  relative viability: 0.267
[19]; first compound 0.04 µM
  relative viability: 0.405
[19]; first compound 0.1265 µM
  relative viability: 0.453
[19]; first compound 0.4 µM
  relative viability: 0.407
[19]; first compound 1.265 µM
  relative viability: 0.434
[19]; first compound 4 µM
  relative viability: 0.464
[20]; first compound 0.04 µM
  relative viability: 0.282
[20]; first compound 0.1265 µM
  relative viability: 0.467
[20]; first compound 0.4 µM
  relative viability: 0.32
[20]; first compound 1.265 µM
  relative viability: 0.398
[20]; first compound 4 µM
  relative viability: 0.339
[21]; first compound 0.04 µM
  relative viability: 0.892
[21]; first compound 0.1265 µM
  relative viability: 0.838
[21]; first compound 0.4 µM
  relative viability: 0.752
[21]; first compound 4 µM
  relative viability: 0.838
[22]; first compound 0.04 µM
  relative viability: 1.01
[22]; first compound 0.1265 µM
  relative viability: 1.04
[22]; first compound 0.4 µM
  relative viability: 1.08
[22]; first compound 1.265 µM
  relative viability: 1.03
[22]; first compound 4 µM
  relative viability: 1.11
[23]; first compound 0.04 µM
  relative viability: 0.872
[23]; first compound 0.1265 µM
  relative viability: 0.692
[23]; first compound 0.4 µM
  relative viability: 0.594
[23]; first compound 1.265 µM
  relative viability: 0.457
[23]; first compound 4 µM
  relative viability: 0.673
[24]; first compound 0.04 µM
  relative viability: 0.749
[24]; first compound 0.1265 µM
  relative viability: 0.746
[24]; first compound 0.4 µM
  relative viability: 0.666
[24]; first compound 1.265 µM
  relative viability: 0.511
[24]; first compound 4 µM
  relative viability: 0.784
